Data reported in article PMC6820371, “Terbium-161 for PSMA-targeted radionuclide therapy of prostate cancer” (European Journal of Nuclear Medicine and Molecular Imaging, 2019).
Entries after “also recorded” stand apart in the source; their conditions may differ. Where two headings read alike, the source gives them in different places. Marks after values point to notes of the source that are not given here.

How the values were obtained:
[1] = test system: PSMA-positive PC-3 PIP tumor cells; test: Tumor cell uptake and internalization; type: cell-based, human; details: for Internalized fraction: PC-3 PIP
[2] = test system: PC-3 PIP tumor-bearing mice; details: for Median Survival: control 19 days
Description: Athymic nude BALB/c mice were obtained from Charles River Laboratories (Sulzfeld, Germany) at the age of 5–6 weeks. […] Therapy studies were performed with mice inoculated with PC-3 PIP cells (4 × 10^6 cells in HBSS with Ca^2+/Mg^2+) on the right shoulder (Supplementary material).
Three groups of mice (n = 6) were injected with only saline, ^161Tb-PSMA-617 (5.0 MBq; 1 nmol/mouse), or ^161Tb-PSMA-617 (10 MBq; 1 nmol/mouse) at Day 0 of the therapy, 6 days after PC-3 PIP tumor cell inoculation (Table 1). The mice were monitored by measuring body weights and the tumor sizes every other day over 12 weeks. Mice were euthanized when pre-defined endpoint criteria were reached, or when the study was terminated at Day 84 (Supplementary material). The relative body weight (RBW) was defined as [BWx/ BW0], where BWx is the body weight in gram at a given day x, and BW0 the body weight in grams at Day 0. The tumor dimension was determined by measuring the longest tumor axis (L) and its perpendicular axis (W) with a digital caliper. The tumor volume (V) was calculated according to the eq. [V = 0.5 * (L * W^2)]. The relative tumor volume (RTV) was defined as [TVx/TV0], where TVx is the tumor volume in mm^3 at a given day x, and TV0 the tumor volume in mm^3 at Day 0.
The efficacy of the radionuclide therapy was assessed by the tumor growth delay (TGDx), which was calculated as the time required for the tumor volume to increase x-fold over the initial volume at Day 0. The tumor growth delay index [TGDIx = TGDx(T)/TGDx(C)] was calculated as the TGDx ratio of treated mice (T) over control mice (C) for a 2-fold (x = 2, TGD2) and 5-fold (x = 5, TGD5) increase of the initial tumor volume. Statistical analysis was performed by a one-way ANOVA with Tukey’s multiple comparison post-test using GraphPad Prism software (version 7). A value of p < 0.05 was considered statistically significant. The median survival was calculated by Kaplan–Meier curves using GraphPad Prism software (version 7).
Methods: The therapy was started at Day 0 by injecting mice with the radioligands, 6 days after PC-3 PIP tumor cell inoculation (4×10^6 cells in HBSS with Ca^2+/Mg^2+) on the right shoulder.
Endpoint criteria: Mice were euthanized when a predefined endpoint criterion was reached or when the study was finalized at Day 84. Endpoint criteria were defined as (i) body weight loss of >15%, (ii) a tumor volume of >800 mm^3 (iii) a combination of body weight loss of >10% and a tumor volume of >700 mm^3 or (iv) signs of unease and pain or a combination thereof.

[3] = test system: PC-3 PIP/flu tumor-bearing mice; details: for Biodistribution: Blood / Biodistribution: Bone / Biodistribution: Heart / Biodistribution: Intestines / Biodistribution: Kidneys / Biodistribution: Liver / Biodistribution: Lung / Biodistribution: Muscle / Biodistribution: PC-3 PIP tumor / Biodistribution: PC-3 flu tumor / Biodistribution: Salivary glands / Biodistribution: Spleen / Biodistribution: Stomach: 5.0 MBq, 1 nmol i.v.; for Tumor-to-blood / Tumor-to-kidney / Tumor-to-liver: PC-3 PIP tumor
Description: Biodistribution studies were performed 12–14 days after tumor cell inoculation when the tumor xenografts reached an average tumor volume of about ~50–200 mm^3 (Supplementary material). PSMA-617 was labeled with ^161Tb at a specific activity of 5.0 MBq/nmol and diluted in saline. […] The mice were sacrificed at 1 h, 4 h, 24 h, 48 h, or 96 h post injection (p.i.) and selected tissues and organs were collected, weighed, and measured using a γ-counter (Perkin Elmer, Wallac Wizard 1480). Groups of 3–5 mice were sacrificed at each time point. The results were decay-corrected and listed as percentage of the injected activity per gram of tissue mass (% IA/g). Data are presented as the average ± standard deviation (SD).
A p-value of < 0.05 was considered statistically significant.
Biodistribution studies were performed 12–14 days after tumor cell inoculation. The experimental procedure of the biodistribution studies is described in the main manuscript.

[4] = test system: mice inoculated with PC-3 PIP cells; test: Additional therapy study (injection 2 days after tumor cell inoculation); type: in vivo; details: for Median Survival: control 26 days
Description: The day of the treatment, two days after tumor cell inoculation, was defined as Day 0 of the study (Table S7).
Endpoint criteria: The mice were monitored until they reached an endpoint (definition of endpoints, see Chapter 13) or over the whole period of 38 days when the study was terminated.
Data analysis of the therapy study: The tumor growth delay indices (TGDI2 and TGDI5) were calculated as reported in the Methods of the main manuscript. The median survival was determined using GraphPad Prism software (version 7).

[5] = test system: PC-3 PIP tumor cells; test: Cell survival assay (clonogenic assay); type: cell-based, human; details: 0.05–5.0 MBq/mL, p < 0.05
[6] = n-octanol/PBS distribution coefficient (logD), shake-flask method; type: physicochemical; details: PBS pH 7.4
Description: The radiolabeling of PSMA-617 (Advanced Biochemical Compounds, ABX GmbH, Radeberg, Germany) with ^161Tb was performed under standard labeling conditions (Supplementary material). […] The n-octanol/PBS distribution coefficient (logD) was determined for ^161Tb-PSMA-617 (Supplementary material). All of these experiments were performed as previously reported for ^177Lu-PSMA-617 [27].
It was diluted in PBS pH 7.4 (∼500 kBq, 25 µL, 0.01 nmol) and added to polypropylene tubes containing 1475 µL PBS and 1500 µL n-octanol followed by vigorous vortexing for 1 min. Phase separation was obtained by centrifugation at 1200 rcf for 6 min. The distribution coefficients were calculated as the logarithm of the ratio of counts per minute (cpm) measured in the n-octanol phase relative to the cpm measured in the PBS pH 7.4 phase using a γ-counter (Perkin Elmer, Wallac Wizard 1480). At least three experiments were performed in quintuplicate.

O=C([O-])CN1CCN(CC(=O)[O-])CCN(CC(=O)NCC2CCC(C(=O)NC(Cc3ccc4ccccc4c3)C(=O)NCCCCC(NC(=O)NC(CCC(=O)O)C(=O)O)C(=O)O)CC2)CCN(CC(=O)[O-])CC1.[161Tb+3] (stereo not drawn) [^161Tb-PSMA-617]
PC-3 PIP tumor cell uptake ([1]; 2–4 h incubation): 47–54% | Uptake in PC-3 PIP tumor cells ([1]; 2 h incubation): 47% | Uptake in PC-3 PIP tumor cells ([1]; 4 h incubation): 54% | Internalized fraction ([1]; 2–4 h incubation): 8–11% | Internalized fraction ([1]; 2 h): 8% | Internalized fraction ([1]; 4 h): 11% | First mouse euthanized ([2]; 5.0 MBq/mouse): 30 days | Last mouse euthanized ([2]; 5.0 MBq/mouse): 66 days | TGDI2 ([2]; 5.0 MBq/mouse): 4.2 ± 1.2 | TGDI3 ([2]; 5.0 MBq/mouse): 2.5 ± 0.6 | Median Survival ([2]; 5.0 MBq/mouse): 36 days | First mouse euthanized ([2]; 10 MBq/mouse): 42 days | Mice still alive at the end of the study at Day 84 ([2]; 10 MBq/mouse, n = 6): two | Mice in which PC-3 PIP tumors disappeared entirely ([2]; 10 MBq/mouse, n = 6, over 12 weeks): two of the six; also recorded: two out of six | Median Survival ([2]; 10 MBq/mouse): 65 days | Last mouse euthanized ([2]; 10 MBq/mouse, study end at Day 84, 2 mice had not reached an endpoint): 84^1) Day | Biodistribution: Blood ([3]; 1 h p.i.): 0.49 ± 0.16 %IA/g | Biodistribution: Bone ([3]; 1 h p.i.): 0.21 ± 0.07 %IA/g | Biodistribution: Heart ([3]; 1 h p.i.): 0.21 ± 0.05 %IA/g | Biodistribution: Intestines ([3]; 1 h p.i.): 0.26 ± 0.05 %IA/g | Biodistribution: Kidneys ([3]; 1 h p.i.): 9.6 ± 1.3 %IA/g | Biodistribution: Liver ([3]; 1 h p.i.): 0.28 ± 0.05 %IA/g | Biodistribution: Lung ([3]; 1 h p.i.): 0.66 ± 0.28 %IA/g | Biodistribution: Muscle ([3]; 1 h p.i.): 0.13 ± 0.06 %IA/g | Biodistribution: PC-3 PIP tumor ([3]; 1 h p.i.): 44 ± 5.3 %IA/g | Biodistribution: PC-3 flu tumor ([3]; 1 h p.i.): 0.39 ± 0.18 %IA/g | Biodistribution: Salivary glands ([3]; 1 h p.i.): 0.28 ± 0.13 %IA/g | Biodistribution: Spleen ([3]; 1 h p.i.): 0.54 ± 0.08 %IA/g | Biodistribution: Stomach ([3]; 1 h p.i.): 0.22 ± 0.05 %IA/g | Tumor-to-blood ([3]; 1 h p.i.): 99 ± 27 | Tumor-to-kidney ([3]; 1 h p.i.): 4.7 ± 0.5 | Tumor-to-liver ([3]; 1 h p.i.): 163 ± 23 | Biodistribution: Blood ([3]; 4 h p.i.): 0.08 ± 0.01 %IA/g | Biodistribution: Bone ([3]; 4 h p.i.): 0.09 ± 0.02 %IA/g | Biodistribution: Heart ([3]; 4 h p.i.): 0.05 ± 0.01 %IA/g | Biodistribution: Intestines ([3]; 4 h p.i.): 0.06 ± 0.01 %IA/g | Biodistribution: Kidneys ([3]; 4 h p.i.): 2.9 ± 0.14 %IA/g | Biodistribution: Liver ([3]; 4 h p.i.): 0.17 ± 0.02 %IA/g | Biodistribution: Lung ([3]; 4 h p.i.): 0.11 ± 0.01 %IA/g | Biodistribution: Muscle ([3]; 4 h p.i.): 0.03 ± 0.00 %IA/g | Biodistribution: PC-3 PIP tumor ([3]; 4 h p.i.): 49 ± 5.5 %IA/g | Biodistribution: PC-3 flu tumor ([3]; 4 h p.i.): 0.13 ± 0.02 %IA/g | Biodistribution: Salivary glands ([3]; 4 h p.i.): 0.07 ± 0.01 %IA/g | Biodistribution: Spleen ([3]; 4 h p.i.): 0.13 ± 0.01 %IA/g | Biodistribution: Stomach ([3]; 4 h p.i.): 0.08 ± 0.01 %IA/g | Tumor-to-blood ([3]; 4 h p.i.): 640 ± 132 | Tumor-to-kidney ([3]; 4 h p.i.): 17 ± 1.6 | Tumor-to-liver ([3]; 4 h p.i.): 302 ± 64 | Biodistribution: Blood ([3]; 24 h p.i.): 0.03 ± 0.00 %IA/g | Biodistribution: Bone ([3]; 24 h p.i.): 0.09 ± 0.01 %IA/g | Biodistribution: Heart ([3]; 24 h p.i.): 0.03 ± 0.00 %IA/g | Biodistribution: Intestines ([3]; 24 h p.i.): 0.03 ± 0.00 %IA/g | Biodistribution: Kidneys ([3]; 24 h p.i.): 1.1 ± 0.09 %IA/g | Biodistribution: Liver ([3]; 24 h p.i.): 0.11 ± 0.02 %IA/g | Biodistribution: Lung ([3]; 24 h p.i.): 0.11 ± 0.09 %IA/g | Biodistribution: Muscle ([3]; 24 h p.i.): 0.02 ± 0.00 %IA/g | Biodistribution: PC-3 PIP tumor ([3]; 24 h p.i.): 43 ± 5.5 %IA/g | Biodistribution: PC-3 flu tumor ([3]; 24 h p.i.): 0.08 ± 0.01 %IA/g | Biodistribution: Salivary glands ([3]; 24 h p.i.): 0.05 ± 0.01 %IA/g | Biodistribution: Spleen ([3]; 24 h p.i.): 0.08 ± 0.01 %IA/g | Biodistribution: Stomach ([3]; 24 h p.i.): 0.04 ± 0.00 %IA/g | Tumor-to-blood ([3]; 24 h p.i.): 1668 ± 302 | Tumor-to-kidney ([3]; 24 h p.i.): 43 ± 10 | Tumor-to-liver ([3]; 24 h p.i.): 383 ± 65 | Biodistribution: Blood ([3]; 48 h p.i.): 0.02 ± 0.00 %IA/g | Biodistribution: Bone ([3]; 48 h p.i.): 0.05 ± 0.01 %IA/g | Biodistribution: Heart ([3]; 48 h p.i.): 0.03 ± 0.00 %IA/g | Biodistribution: Intestines ([3]; 48 h p.i.): 0.02 ± 0.00 %IA/g | Biodistribution: Kidneys ([3]; 48 h p.i.): 0.58 ± 0.05 %IA/g | Biodistribution: Liver ([3]; 48 h p.i.): 0.12 ± 0.01 %IA/g | Biodistribution: Lung ([3]; 48 h p.i.): 0.04 ± 0.01 %IA/g | Biodistribution: Muscle ([3]; 48 h p.i.): 0.01 ± 0.00 %IA/g | Biodistribution: PC-3 PIP tumor ([3]; 48 h p.i.): 28 ± 4.1 %IA/g | Biodistribution: PC-3 flu tumor ([3]; 48 h p.i.): 0.06 ± 0.01 %IA/g | Biodistribution: Salivary glands ([3]; 48 h p.i.): 0.03 ± 0.00 %IA/g | Biodistribution: Spleen ([3]; 48 h p.i.): 0.07 ± 0.00 %IA/g | Biodistribution: Stomach ([3]; 48 h p.i.): 0.03 ± 0.00 %IA/g | Tumor-to-blood ([3]; 48 h p.i.): 1346 ± 166 | Tumor-to-kidney ([3]; 48 h p.i.): 49 ± 7.2 | Tumor-to-liver ([3]; 48 h p.i.): 229 ± 30 | Biodistribution: Blood ([3]; 96 h p.i.): 0.01 ± 0.00 %IA/g | Biodistribution: Bone ([3]; 96 h p.i.): 0.06 ± 0.01 %IA/g | Biodistribution: Heart ([3]; 96 h p.i.): 0.02 ± 0.00 %IA/g | Biodistribution: Intestines ([3]; 96 h p.i.): 0.12 ± 0.12 %IA/g | Biodistribution: Kidneys ([3]; 96 h p.i.): 0.40 ± 0.04 %IA/g | Biodistribution: Liver ([3]; 96 h p.i.): 0.10 ± 0.00 %IA/g | Biodistribution: Lung ([3]; 96 h p.i.): 0.03 ± 0.00 %IA/g | Biodistribution: Muscle ([3]; 96 h p.i.): 0.01 ± 0.00 %IA/g | Biodistribution: PC-3 PIP tumor ([3]; 96 h p.i.): 22 ± 4.3 %IA/g | Biodistribution: PC-3 flu tumor ([3]; 96 h p.i.): 0.04 ± 0.01 %IA/g | Biodistribution: Salivary glands ([3]; 96 h p.i.): 0.03 ± 0.00 %IA/g | Biodistribution: Spleen ([3]; 96 h p.i.): 0.07 ± 0.01 %IA/g | Biodistribution: Stomach ([3]; 96 h p.i.): 0.66 ± 1.01 %IA/g | Tumor-to-blood ([3]; 96 h p.i.): 2053 ± 412 | Tumor-to-kidney ([3]; 96 h p.i.): 56 ± 9.7 | Tumor-to-liver ([3]; 96 h p.i.): 224 ± 33 | First mouse euthanized ([4]; 2.5 MBq): 26 days | TGDI2 ([4]; 2.5 MBq): 1.0 ± 0.4 | TGDI5 ([4]; 2.5 MBq): 1.2 ± 0.3 | Median Survival ([4]; 2.5 MBq): 31 days | Last mouse euthanized ([4]; 2.5 MBq, study end Day 38): study end | First mouse euthanized ([4]; 5.0 MBq): 30 days | TGDI2 ([4]; 5.0 MBq): 1.6 ± 0.4 | Median Survival ([4]; 5.0 MBq): 34 days | Last mouse euthanized ([4]; 5.0 MBq, study end Day 38): study end | Survival ([4]; 10 MBq): survived until the end of the study at Day 38 | Cases in which tumors started to grow ([4]; 10 MBq, from Day 25 and Day 35 on): 2 of 8 | First mouse euthanized ([4]; 10 MBq, study end Day 38): study end | Last mouse euthanized ([4]; 10 MBq, study end Day 38): study end | Reduction of tumor-cell survival compared to ^177Lu-PSMA-617 [5]: significantly more effective | n-octanol/PBS distribution coefficient (logD value) [6]: −3.9 ± 0.1
